From patent US12491170B2, “Stable treprostinil prodrugs” (United Therapeutics Corporation, priority 2020, dated 2025)

Experiment: Stability in liver microsomes, human
Details: not given
Description: (§1) Mixed-gender human liver microsomes, male Sprague-Dawley rat liver microsomes, and male Beagle dog liver microsomes were purchased from XenoTech. The reaction mixture, minus NADPH, was prepared as described below. […] An aliquot of the reaction mixture (without cofactor) was equilibrated in a shaking water bath at 37° C. for 5 minutes. The reaction was initiated by the addition of cofactor, and the mixture was incubated in a shaking water bath at 37° C. Aliquots (200 μL) were withdrawn at 0, 10, 20, 30, and 60 minutes. Test article samples were immediately combined with 400 μL of ice-cold acetonitrile (ACN) to terminate the reaction. […] The samples were then mixed and centrifuged to precipitate proteins. Aliquots of the supernatant were removed, diluted 1:1 into distilled water containing internal standard, and analyzed by LC-MS/MS against calibration standards prepared in a matched matrix. All samples were analyzed for the dosed prodrugs as well as the drug, treprostinil. The test article concentration was compared to the concentration at time 0 to determine the percent of test article remaining at each time point. Half-lives and clearance were calculated using GraphPad software, fitting to a single-phase exponential decay equation.
(§2) • Liver Microsomes 0.5 mg/mL • NADPH (cofactor) 1 mM • Potassium Phosphate, pH 7.4 100 mM • Magnesium Chloride 5 mM • Test Article 1 μM

Structure (SMILES) | Trep Concentration 0 min [µM] | Trep Concentration 10 min [µM] | Trep Concentration 20 min [µM] | Trep Concentration 30 min [µM] | Trep Concentration 60 min [µM]
CCCCCC1CCC2C(CC3Cc4c(cccc4OCC(=O)O)CC32)OP(=O)(Oc2ccccc2)O1 (mixture of isomers) [XXVIII] | 0 | 0 | 0 | 0 | 0
CCCCCC(CCC1C(O)CC2Cc3c(cccc3OCC(=O)O)CC21)OC(=O)NCCO (stereo not drawn) [LIX] | 0 | 0 | 0 | 0 | 0
CCCCCC(CCC1C(O)CC2Cc3c(cccc3OCC(=O)O)CC21)OC(=O)N1CCC(O)CC1 (stereo not drawn) [LVIII] | 0 | 0 | 0 | 0 | 0
CCCCCC(CCC1C(O)CC2Cc3c(cccc3OCC(=O)O)CC21)OCC(=O)O (stereo not drawn) [LVII] | 0 | 0 | 0 | 0 | 0

Same assay, conditions: human

Structure (SMILES) | AUC [µmol·min/L]
CCCCCC1CCC2C(CC3Cc4c(cccc4OCC(=O)O)CC32)OP(=O)(Oc2ccccc2)O1 (mixture of isomers) [XXVIII] | 0.00
CCCCCC(CCC1C(O)CC2Cc3c(cccc3OCC(=O)O)CC21)OC(=O)NCCO (stereo not drawn) [LIX] | 0.00
CCCCCC(CCC1C(O)CC2Cc3c(cccc3OCC(=O)O)CC21)OC(=O)N1CCC(O)CC1 (stereo not drawn) [LVIII] | 0.00
CCCCCC(CCC1C(O)CC2Cc3c(cccc3OCC(=O)O)CC21)OCC(=O)O (stereo not drawn) [LVII] | 0.00
CCCCCC(O)CCC1C(O)CC2Cc3c(cccc3OCC(=O)NCC(=O)O)CC21 (stereo not drawn) [VII] | 0.00

Experiment: Stability in liver microsomes, rat
Details: not given
Description: as §1, §2

Structure (SMILES) | Trep Concentration 0 min [µM] | Trep Concentration 10 min [µM] | Trep Concentration 20 min [µM] | Trep Concentration 30 min [µM] | Trep Concentration 60 min [µM]
CCCCCC1CCC2C(CC3Cc4c(cccc4OCC(=O)O)CC32)OP(=O)(Oc2ccccc2)O1 (mixture of isomers) [XXVIII] | 0 | 0 | 0 | 0 | 0
CCCCCC(CCC1C(O)CC2Cc3c(cccc3OCC(=O)O)CC21)OC(=O)NCCO (stereo not drawn) [LIX] | 0 | 0 | 0 | 0 | 0
CCCCCC(CCC1C(O)CC2Cc3c(cccc3OCC(=O)O)CC21)OC(=O)N1CCC(O)CC1 (stereo not drawn) [LVIII] | 0 | 0 | 0 | 0 | 0
CCCCCC(CCC1C(O)CC2Cc3c(cccc3OCC(=O)O)CC21)OCC(=O)O (stereo not drawn) [LVII] | 0 | 0 | 0 | 0 | 0

Experiment: Stability in liver microsomes, dog
Details: not given
Description: as §1, §2

Structure (SMILES) | Trep Concentration 0 min [µM] | Trep Concentration 10 min [µM] | Trep Concentration 20 min [µM] | Trep Concentration 30 min [µM] | Trep Concentration 60 min [µM]
CCCCCC1CCC2C(CC3Cc4c(cccc4OCC(=O)O)CC32)OP(=O)(Oc2ccccc2)O1 (mixture of isomers) [XXVIII] | 0 | 0 | 0.00553 | 0.003 | 0
CCCCCC(CCC1C(O)CC2Cc3c(cccc3OCC(=O)O)CC21)OC(=O)NCCO (stereo not drawn) [LIX] | 0 | 0 | 0 | 0 | 0
CCCCCC(CCC1C(O)CC2Cc3c(cccc3OCC(=O)O)CC21)OC(=O)N1CCC(O)CC1 (stereo not drawn) [LVIII] | 0 | 0 | 0 | 0 | 0
CCCCCC(CCC1C(O)CC2Cc3c(cccc3OCC(=O)O)CC21)OCC(=O)O (stereo not drawn) [LVII] | 0 | 0 | 0 | 0 | 0

Experiment: Stability in cryopreserved hepatocytes, human
Details: not given
Description: (§3) Mixed-gender human cryopreserved hepatocytes, male Sprague-Dawley rat cryopreserved hepatocytes, and male Beagle dog cryopreserved hepatocytes were purchased from XenoTech. The hepatocytes were thawed and prepared according to the vendor's instructions, pooled into Krebs Henseleit buffer (KHB, pH 7.4), and kept on ice prior to the experiments. […] The final DMSO content in the incubation mixture was ≤0.1%. […] Aliquots of the test article were withdrawn (n=1) at 0, 15, 30, 60, and 120 minutes. […] Aliquots of 7-HC were withdrawn (n=1) at 0 and 15 minutes. The reaction was immediately terminated by adding two volumes of ice-cold acetonitrile (ACN) to the test article samples and three volumes of ACN containing internal standard to the positive control samples. The samples were then mixed and centrifuged to precipitate proteins. An aliquot of the supernatant was then diluted with water and analyzed by LC-MS/MS against calibration standards prepared in a matched matrix. […] All test article samples were analyzed for the dosed prodrugs as well as the drug, treprostinil. The test article concentration was compared to the concentration at time 0 to determine the percent of test article remaining at each time point. Half-lives and clearance values were calculated using GraphPad software, fitting to a single-phase exponential decay equation.

Structure (SMILES) | Trep Concentration (μM) 0 min [µM] | Trep Concentration (μM) 15 min [µM] | Trep Concentration (μM) 30 min [µM] | Trep Concentration (μM) 60 min [µM] | Trep Concentration (μM) 120 min [µM]
CCCCCC1CCC2C(CC3Cc4c(cccc4OCC(=O)O)CC32)OP(=O)(Oc2ccccc2)O1 (mixture of isomers) [XXVIII] | 0 | 0 | 0 | 0 | 0
CCCCCC(CCC1C(O)CC2Cc3c(cccc3OCC(=O)O)CC21)OC(=O)NCCO (stereo not drawn) [LIX] | 0 | 0 | 0 | 0 | 0
CCCCCC(CCC1C(O)CC2Cc3c(cccc3OCC(=O)O)CC21)OC(=O)N1CCC(O)CC1 (stereo not drawn) [LVIII] | 0 | 0 | 0 | 0 | 0
CCCCCC(CCC1C(O)CC2Cc3c(cccc3OCC(=O)O)CC21)OCC(=O)O (stereo not drawn) [LVII] | 0 | 0 | 0 | 0 | 0

Same assay, conditions: human

Structure (SMILES) | AUC [µmol·min/L]
CCCCCC1CCC2C(CC3Cc4c(cccc4OCC(=O)O)CC32)OP(=O)(Oc2ccccc2)O1 (mixture of isomers) [XXVIII] | 0.00
CCCCCC(CCC1C(O)CC2Cc3c(cccc3OCC(=O)O)CC21)OC(=O)NCCO (stereo not drawn) [LIX] | 0.00
CCCCCC(CCC1C(O)CC2Cc3c(cccc3OCC(=O)O)CC21)OC(=O)N1CCC(O)CC1 (stereo not drawn) [LVIII] | 0.00
CCCCCC(CCC1C(O)CC2Cc3c(cccc3OCC(=O)O)CC21)OCC(=O)O (stereo not drawn) [LVII] | 0.00
CCCCCC(O)CCC1C(O)CC2Cc3c(cccc3OCC(=O)NCC(=O)O)CC21 (stereo not drawn) [VII] | 0.00

Experiment: Stability in cryopreserved hepatocytes, rat
Details: not given
Description: as §3

Structure (SMILES) | Trep Concentration (μM) 0 min [µM] | Trep Concentration (μM) 15 min [µM] | Trep Concentration (μM) 30 min [µM] | Trep Concentration (μM) 60 min [µM] | Trep Concentration (μM) 120 min [µM]
CCCCCC1CCC2C(CC3Cc4c(cccc4OCC(=O)O)CC32)OP(=O)(Oc2ccccc2)O1 (mixture of isomers) [XXVIII] | 0 | 0 | 0 | 0 | 0
CCCCCC(CCC1C(O)CC2Cc3c(cccc3OCC(=O)O)CC21)OC(=O)NCCO (stereo not drawn) [LIX] | 0 | 0 | 0 | 0 | 0
CCCCCC(CCC1C(O)CC2Cc3c(cccc3OCC(=O)O)CC21)OC(=O)N1CCC(O)CC1 (stereo not drawn) [LVIII] | 0 | 0 | 0 | 0 | 0
CCCCCC(CCC1C(O)CC2Cc3c(cccc3OCC(=O)O)CC21)OCC(=O)O (stereo not drawn) [LVII] | 0 | 0 | 0 | 0 | 0

Same assay, conditions: rat

Structure (SMILES) | AUC [µmol·min/L]
CCCCCC1CCC2C(CC3Cc4c(cccc4OCC(=O)O)CC32)OP(=O)(Oc2ccccc2)O1 (mixture of isomers) [XXVIII] | 0.00
CCCCCC(CCC1C(O)CC2Cc3c(cccc3OCC(=O)O)CC21)OC(=O)NCCO (stereo not drawn) [LIX] | 0.00
CCCCCC(CCC1C(O)CC2Cc3c(cccc3OCC(=O)O)CC21)OC(=O)N1CCC(O)CC1 (stereo not drawn) [LVIII] | 0.00
CCCCCC(CCC1C(O)CC2Cc3c(cccc3OCC(=O)O)CC21)OCC(=O)O (stereo not drawn) [LVII] | 0.00
CCCCCC(O)CCC1C(O)CC2Cc3c(cccc3OCC(=O)NCC(=O)O)CC21 (stereo not drawn) [VII] | 10.79

Experiment: Stability in cryopreserved hepatocytes, dog
Details: not given
Description: as §3

Structure (SMILES) | Trep Concentration (μM) 0 min [µM] | Trep Concentration (μM) 15 min [µM] | Trep Concentration (μM) 30 min [µM] | Trep Concentration (μM) 60 min [µM] | Trep Concentration (μM) 120 min [µM]
CCCCCC1CCC2C(CC3Cc4c(cccc4OCC(=O)O)CC32)OP(=O)(Oc2ccccc2)O1 (mixture of isomers) [XXVIII] | 0 | 0 | 0 | 0 | 0.00339
CCCCCC(CCC1C(O)CC2Cc3c(cccc3OCC(=O)O)CC21)OC(=O)NCCO (stereo not drawn) [LIX] | 0 | 0 | 0.00416 | 0.00836 | 0.00907
CCCCCC(CCC1C(O)CC2Cc3c(cccc3OCC(=O)O)CC21)OC(=O)N1CCC(O)CC1 (stereo not drawn) [LVIII] | 0 | 0 | 0.00519 | 0.00214 | 0.00344
CCCCCC(CCC1C(O)CC2Cc3c(cccc3OCC(=O)O)CC21)OCC(=O)O (stereo not drawn) [LVII] | 0 | 0 | 0 | 0 | 0

Same assay, conditions: dog

Structure (SMILES) | AUC [µmol·min/L]
CCCCCC1CCC2C(CC3Cc4c(cccc4OCC(=O)O)CC32)OP(=O)(Oc2ccccc2)O1 (mixture of isomers) [XXVIII] | 0.10
CCCCCC(CCC1C(O)CC2Cc3c(cccc3OCC(=O)O)CC21)OC(=O)NCCO (stereo not drawn) [LIX] | 0.74
CCCCCC(CCC1C(O)CC2Cc3c(cccc3OCC(=O)O)CC21)OC(=O)N1CCC(O)CC1 (stereo not drawn) [LVIII] | 0.32
CCCCCC(CCC1C(O)CC2Cc3c(cccc3OCC(=O)O)CC21)OCC(=O)O (stereo not drawn) [LVII] | 0.00
CCCCCC(O)CCC1C(O)CC2Cc3c(cccc3OCC(=O)NCC(=O)O)CC21 (stereo not drawn) [VII] | 0.00

Experiment: not given
Details: rat

Structure (SMILES) | AUC [µmol·min/L]
CCCCCC1CCC2C(CC3Cc4c(cccc4OCC(=O)O)CC32)OP(=O)(Oc2ccccc2)O1 (mixture of isomers) [XXVIII] | 0.00
CCCCCC(CCC1C(O)CC2Cc3c(cccc3OCC(=O)O)CC21)OC(=O)NCCO (stereo not drawn) [LIX] | 0.00
CCCCCC(CCC1C(O)CC2Cc3c(cccc3OCC(=O)O)CC21)OC(=O)N1CCC(O)CC1 (stereo not drawn) [LVIII] | 0.00
CCCCCC(CCC1C(O)CC2Cc3c(cccc3OCC(=O)O)CC21)OCC(=O)O (stereo not drawn) [LVII] | 0.00
CCCCCC(O)CCC1C(O)CC2Cc3c(cccc3OCC(=O)NCC(=O)O)CC21 (stereo not drawn) [VII] | 0.39

Experiment: not given
Details: dog

Structure (SMILES) | AUC [µmol·min/L]
CCCCCC1CCC2C(CC3Cc4c(cccc4OCC(=O)O)CC32)OP(=O)(Oc2ccccc2)O1 (mixture of isomers) [XXVIII] | 0.11
CCCCCC(CCC1C(O)CC2Cc3c(cccc3OCC(=O)O)CC21)OC(=O)NCCO (stereo not drawn) [LIX] | 0.00
CCCCCC(CCC1C(O)CC2Cc3c(cccc3OCC(=O)O)CC21)OC(=O)N1CCC(O)CC1 (stereo not drawn) [LVIII] | 0.00
CCCCCC(CCC1C(O)CC2Cc3c(cccc3OCC(=O)O)CC21)OCC(=O)O (stereo not drawn) [LVII] | 0.00
CCCCCC(O)CCC1C(O)CC2Cc3c(cccc3OCC(=O)NCC(=O)O)CC21 (stereo not drawn) [VII] | 0.00
